Among the test systems are HL-60(TB) leukemia; A498 renal; SW-620 colon; IGROV1 ovarian; SK-OV-3 ovarian; COLO 205 colon; OVCAR-8 ovarian; HT29 colon; DU-145 prostate; SNB-75 CNS.
Holding throughout (experiment): NCI-60 cell line screen, 48 h

Structures are written as SMILES.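 The compound was tested at five concentrations on cells cultured in 96-well plates, with a 48-hour exposure period. Here, GI50 denotes the concentration required for 50% inhibition of growth. TGI is the concentration that stops growth completely.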

As to `C/C=C(\N=C=S)C(=O)OC1C(COC(C)=O)OC([C@]2(O)CC(=O)C(=N)C(C(=O)O)=C2O)C(O)C1OC1CC(OC)C(O)([C@@H](C)OC(=O)[C@@H](C)CC)C(C)O1` (some centres undefined), the TGI in the experiment on HL-60(TB) leukemia came to 5.34 µM; in the experiment with A498 renal it was 62.5 µM; in the experiment with SW-620 colon, 8.33 µM; in the experiment with IGROV1 ovarian, 36 µM; in the experiment on SK-OV-3 ovarian, 52 µM; in the experiment on COLO 205 colon, 13.3 µM. In addition, the TGI came to 15 µM in the experiment on OVCAR-8 ovarian, 23.6 µM in the experiment on HT29 colon, 39.2 µM in the experiment with DU-145 prostate and 34.8 µM with SNB-75 CNS.
Turning to `Brc1ccccc2cc(-c3ccccc3)nc1-2`, the TGI in the experiment on HL-60(TB) leukemia is 35.8 µM; with A498 renal it was 42.7 µM; in the experiment on SW-620 colon, > 36.2 µM; with IGROV1 ovarian it was 26.5 µM; in the experiment with SK-OV-3 ovarian, 37.8 µM; with COLO 205 colon it was 15.8 µM. The TGI in the experiment with OVCAR-8 ovarian is > 50.2 µM; in the experiment on HT29 colon, > 90.3 µM; with DU-145 prostate, > 63.3 µM; with SNB-75 CNS, 51.5 µM.
`Cn1c(CCCC(=O)O)nc2cc(N(CCCl)CCCl)ccc21`: the GI50 was > 51.2 µM with HL-60(TB) leukemia; > 32.6 µM in the experiment with A498 renal; 78.4 µM in the experiment on SW-620 colon; 70 µM in the experiment on IGROV1 ovarian; > 86.4 µM in the experiment on SK-OV-3 ovarian; > 95.8 µM in the experiment on COLO 205 colon. Moreover, the GI50 was > 91.2 µM in the experiment with OVCAR-8 ovarian, > 100 µM in the experiment on HT29 colon, > 80.6 µM with DU-145 prostate and > 83.5 µM in the experiment on SNB-75 CNS. Also, the TGI with HL-60(TB) leukemia is > 85.3 µM; in the experiment on A498 renal, > 75 µM; in the experiment on SW-620 colon it was > 100 µM; with IGROV1 ovarian, > 100 µM; in the experiment with SK-OV-3 ovarian, > 100 µM; in the experiment on COLO 205 colon it was > 100 µM. Besides, the TGI in the experiment with OVCAR-8 ovarian, in the experiment with HT29 colon, with DU-145 prostate and in the experiment on SNB-75 CNS was > 100 µM in each case.
`O=C(Oc1ccccc1)N(c1ccccc1)c1ccccc1`: the GI50 with HL-60(TB) leukemia is 28.2 µM; in the experiment with A498 renal it was 10.4 µM; in the experiment with SW-620 colon it was 38.8 µM; in the experiment on IGROV1 ovarian it was 38.1 µM; in the experiment on SK-OV-3 ovarian, 47.3 µM; with COLO 205 colon it was 19.5 µM. Besides, the GI50 with OVCAR-8 ovarian is 31.8 µM; in the experiment on HT29 colon it was 36.9 µM; in the experiment with DU-145 prostate, 42.9 µM; in the experiment with SNB-75 CNS, 19.6 µM. Further, the TGI was 71.4 µM in the experiment on HL-60(TB) leukemia; 62.7 µM in the experiment on A498 renal; > 100 µM in the experiment with SW-620 colon; > 100 µM with IGROV1 ovarian; > 100 µM with SK-OV-3 ovarian; 44.7 µM in the experiment with COLO 205 colon. The TGI in the experiment with OVCAR-8 ovarian was > 100 µM; in the experiment on HT29 colon it was > 100 µM; with DU-145 prostate, > 100 µM; in the experiment on SNB-75 CNS, 52.5 µM.
Take `CCOc1cc(-c2nncn2C)ccc1Nc1ncc2cc(C)nc(NCC(C)(C)C)c2n1`: the GI50 in the experiment on HL-60(TB) leukemia was > 100 µM; in the experiment on A498 renal, 0.514 µM; in the experiment with SW-620 colon, 0.439 µM; in the experiment on IGROV1 ovarian it was > 100 µM; in the experiment on SK-OV-3 ovarian it was > 100 µM; with COLO 205 colon it was 1.4 µM. The GI50 with HT29 colon was 1.78 µM; in the experiment on DU-145 prostate it was > 30.7 µM; with SNB-75 CNS, > 26 µM. Further, the TGI in the experiment with HL-60(TB) leukemia, in the experiment with A498 renal, with SW-620 colon, in the experiment on IGROV1 ovarian, in the experiment with SK-OV-3 ovarian and in the experiment with COLO 205 colon was > 100 µM in each case. Also, the TGI in the experiment with OVCAR-8 ovarian, with HT29 colon, in the experiment on DU-145 prostate and with SNB-75 CNS was > 100 µM in each case.
On to `COc1cc(C(=O)/C=C/c2cc(-c3ccc4c(c3)OCO4)n[nH]2)cc(OC)c1OC`, for which the GI50 with HL-60(TB) leukemia was 2.17 µM; in the experiment with A498 renal, 1.75 µM; in the experiment with SW-620 colon, 1.62 µM; in the experiment on IGROV1 ovarian it was 1.99 µM; in the experiment on SK-OV-3 ovarian, 4.44 µM; in the experiment on COLO 205 colon, 2.08 µM. The GI50 in the experiment on OVCAR-8 ovarian is 2.35 µM; with HT29 colon, 2.45 µM; in the experiment on DU-145 prostate it was 2.92 µM; in the experiment on SNB-75 CNS it was 2.4 µM. In addition, the TGI in the experiment with HL-60(TB) leukemia was found to be 6.49 µM; in the experiment on A498 renal, 4.65 µM; in the experiment with SW-620 colon, 3.8 µM; in the experiment on IGROV1 ovarian, 5.72 µM; in the experiment on SK-OV-3 ovarian, 14.6 µM; with COLO 205 colon, 4.66 µM. Also, the TGI with OVCAR-8 ovarian is 6.37 µM; in the experiment on HT29 colon, 6.53 µM; in the experiment on DU-145 prostate it was 9.16 µM; with SNB-75 CNS it was 7.27 µM.
In the case of `CC[C@@H](C)/C=C(C)/C=C/C(=O)c1c(O)c(-c2ccc(OC(=O)[C@@]34CC[C@@](C)(C(=O)O3)C4(C)C)cc2)cn(O)c1=O`, the GI50 in the experiment on HL-60(TB) leukemia was 0.841 µM; in the experiment with A498 renal it was 5.6 µM; with SW-620 colon, 2.43 µM; in the experiment on IGROV1 ovarian, 1.72 µM; in the experiment on SK-OV-3 ovarian it was 7.48 µM; in the experiment on COLO 205 colon, 15.2 µM. Besides, the GI50 is 1.76 µM in the experiment with OVCAR-8 ovarian, 21.2 µM with HT29 colon, 0.839 µM in the experiment on DU-145 prostate and 4.34 µM in the experiment with SNB-75 CNS. In addition, the TGI was 2.4 µM in the experiment on HL-60(TB) leukemia; > 50 µM in the experiment on A498 renal; > 50 µM in the experiment on SW-620 colon; 41.4 µM with IGROV1 ovarian; > 50 µM in the experiment on SK-OV-3 ovarian; > 50 µM in the experiment on COLO 205 colon. The TGI in the experiment on OVCAR-8 ovarian, in the experiment with HT29 colon, with DU-145 prostate and in the experiment on SNB-75 CNS was > 50 µM in each case.
With `CN(C)c1ccc(/C=C(\C#N)c2cc3ccccc3[nH]2)cc1`, the GI50 is 0.455 µM with HL-60(TB) leukemia; 0.391 µM in the experiment on A498 renal; 0.39 µM in the experiment on SW-620 colon; 1.6 µM in the experiment with IGROV1 ovarian; 2.28 µM in the experiment on SK-OV-3 ovarian; 0.566 µM in the experiment with COLO 205 colon. Further, the GI50 in the experiment with OVCAR-8 ovarian is 2.35 µM; in the experiment with HT29 colon, 0.375 µM; in the experiment on DU-145 prostate it was 3.41 µM; in the experiment with SNB-75 CNS, 1.31 µM. Also, the TGI in the experiment on HL-60(TB) leukemia is > 100 µM; in the experiment with A498 renal, 6.61 µM; in the experiment with SW-620 colon, 61.9 µM; in the experiment with IGROV1 ovarian, > 100 µM; in the experiment with SK-OV-3 ovarian, > 100 µM; in the experiment with COLO 205 colon, 7.39 µM. Moreover, the TGI in the experiment with OVCAR-8 ovarian is > 100 µM; in the experiment with HT29 colon it was 15.9 µM; with DU-145 prostate, 35.4 µM; with SNB-75 CNS it was 4.59 µM.

For the origin of these results see PubChem BioAssay (NCI).
